Assay results as given in PMC6272448, “Synthesis, ^18F-Radiolabelling and Biological Characterization of Novel Fluoroalkylated Triazine Derivatives for in Vivo Imaging of Phosphodiesterase 2A in Brain via Positron Emission Tomography” (Molecules, 2015).

Target: T1, PDE2A (Mus musculus, UniProt Q922S4)
T1 construct: from tissue; host or cells: living female CD-1 mice (brain, in vivo)
T1 sequence (Q922S4 1-939): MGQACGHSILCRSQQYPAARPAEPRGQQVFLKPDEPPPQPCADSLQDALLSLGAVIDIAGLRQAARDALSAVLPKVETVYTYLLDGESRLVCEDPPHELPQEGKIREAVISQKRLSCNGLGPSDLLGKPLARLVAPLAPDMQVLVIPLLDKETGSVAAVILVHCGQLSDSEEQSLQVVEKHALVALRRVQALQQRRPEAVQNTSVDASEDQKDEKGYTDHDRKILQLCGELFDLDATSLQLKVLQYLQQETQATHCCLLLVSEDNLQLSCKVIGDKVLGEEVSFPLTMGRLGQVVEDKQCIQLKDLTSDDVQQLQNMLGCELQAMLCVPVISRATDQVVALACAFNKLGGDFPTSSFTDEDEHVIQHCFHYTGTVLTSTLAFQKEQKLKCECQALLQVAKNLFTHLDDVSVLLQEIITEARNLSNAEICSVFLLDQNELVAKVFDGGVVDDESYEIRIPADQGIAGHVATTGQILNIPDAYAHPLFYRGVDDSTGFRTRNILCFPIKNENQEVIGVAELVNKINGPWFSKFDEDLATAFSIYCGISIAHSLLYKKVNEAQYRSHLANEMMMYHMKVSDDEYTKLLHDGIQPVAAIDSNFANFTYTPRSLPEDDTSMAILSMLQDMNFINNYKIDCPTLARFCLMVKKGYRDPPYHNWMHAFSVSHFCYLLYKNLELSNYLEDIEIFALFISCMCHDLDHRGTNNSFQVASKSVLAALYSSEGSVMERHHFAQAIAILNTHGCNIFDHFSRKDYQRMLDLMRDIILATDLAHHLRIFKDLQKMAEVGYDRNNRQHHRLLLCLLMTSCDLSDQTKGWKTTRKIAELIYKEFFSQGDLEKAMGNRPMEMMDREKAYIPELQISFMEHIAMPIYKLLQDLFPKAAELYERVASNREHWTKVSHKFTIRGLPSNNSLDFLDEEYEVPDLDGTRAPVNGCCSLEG
Assay: small-animal PET/MR baseline studies in mice
Type: in vivo
Settings: CD-1 mice, i.v. 9.7 ± 1.3 MBq, 0-55 min p.i., n = 4
Experimental: For PET/MR baseline studies of [^18F]TA3 in anaesthetized CD-1 mice, the radioligand was injected intravenously (9.7 ± 1.3 MBq, SAEOS ~70 GBq/µmol, n = 4), and whole body scans were performed for 60 min in listmode with a Mediso nanoScan PET/MR scanner followed by dynamic reconstruction. Time-activity curves (TACs) were generated for regions of interest such as whole brain, striatum, and cerebellum (Figure 8).
Female CD-1 mice (n = 4; age: 8 weeks; weight: 28.8 ± 1.2 g; supplier: Medizinisch-Experimentelles Zentrum Leipzig, Leipzig, Germany) were housed under a 12 h:12 h light-dark cycle at 26 °C in a vented animal cabinet. The animals received an injection of 9.7 ± 1.3 MBq of [^18F]TA3 into the tail vein followed by a 60 min PET/MR scan (Mediso nanoScan®, Budapest, Hungary). Each PET image was corrected for random coincidences, dead time, scatter and attenuation (AC), based on a whole body (WB) MR scan.
The reconstruction parameters for the list mode data are: 3D-ordered subset expectation maximization (OSEM), 4 iterations, 6 subsets, energy window: 400–600 keV, coincidence mode: 1–5, ring difference: 81. […]
The respective brain regions were identified using the MR information from the GRE scan. The activity data is expressed as mean standardized uptake value (SUV) of the overall ROI.

In the case of `COc1ccc2nnc3c(C)nc(-c4cc(OCCC[18F])ccc4F)n3c2n1` [[^18F]TA3], the “time-activity curve in cerebellum” value is reported as “constantly increased uptake in the cerebellum” and the “time-activity curve in striatum” value is reported as “fast wash out of activity from the striatum”.
